Laboratory results as given in patent US5219732A, “Antibody-mediated cofactor-driven reactions” (priority 1990, dated 1993).

Experiments:
Format in all cases: biochemical
[1] = system: monoclonal antibody 7G12-A10-G1-A12 elicited against N-methyl mesoporphyrin (NMMP); assay: Inhibition of antibody-catalyzed chelation of metal ions by mesoporphyrin IX; settings: inhibition of the antibody's catalytic ability (metal chelation by mesoporphyrin IX); read-out: inhibition constant (Ki)
Excerpt: N-Methyl mesoporphyrin (NMMP), a commercially available species obtained from Porphyrin Products, Logan, Utah, having the formula [drawing 3] was conjugated to a carrier protein by treatment of the NMMP with N-hydroxysuccinimide (NHS) and dicyclohexylcarbodiimide, followed by addition of the resulting NHS ester to a solution of the protein. Monoclonal antibodies were elicited in accordance with conventional procedures known to those skilled in the art, and purified by Protein A affinity chromatography.
The inhibition constant (Ki) for the iron(III)mesoporphyrin was less than 10 nM. The term "mesoporphyrin" is used here as an abbreviation for the more complete term "mesoporphyrin IX," and the abbreviations "MP" and "MPIX" are used interchangeably to refer to this species. Thus, "Fe(III)-mesoporphyrin," "iron(III)mesoporphyrin" and "Fe(III)MPIX" are equivalent, and "N-methyl nesoporphyrin," "NMMP" and "N-MeMPIX" and likewise equivalent.

[2] = system: antibody (elicited against pyridoxal/p-nitrophenylalanine Schiff base analog hapten) which enhanced the bimolecular condensation reaction; assay: Inhibition by hapten of the transamination between p-nitrophenylpyruvic acid and pyridoxamine; settings: 100 μM of the hapten
Experimental: (§1) A hapten was formed by first reacting pyridoxal with p-nitrophenylalanine in the presence of aqueous NaBH4 at pH 8.5 to form a stable Schiff base analog. The latter was then treated with thiourea in 48% HBr followed by aqueous ammonium hydroxide to form the disulfide dimer, which was then reduced and subjected to disulfide exchange with a carrier protein to yield a hapten-protein conjugate in which the hapten was the Schiff base analog.
(§2) Antibodies were elicited against the conjugate in accordance with conventional procedures, and seven antibodies specifically binding to the hapten itself were selected. Inhibition tests were conducted in which p-nitrophenylalanine and pyridoxamine individually were contacted with the antibodies to determine whether or not binding between the antibodies and the hapten-protein conjugate was inhibited in an ELISA assay.
(§3) The same seven antibodies were then used in the transamination reaction between p-nitrophenylpyruvic acid and pyridoxamine to form p-nitrophenylalanine. Reactions were performed in two separate buffer solutions, using 1 mM each of p-nitrophenylpyruvic acid and pyridoxamine, 10 μM antibody (IgG) and 250 μM m-nitrobenzylalcohol as an internal standard in each case. The first buffer solution consisted of 10 mM phosphate and 150 mM NaCl at pH 7.5, and the second consisted of 100 mM imidazole and 100 mM NaCl at pH 7.0.

[3] = system: antibody (elicited against pyridoxal/p-nitrophenylalanine Schiff base analog hapten) which resulted in the highest rate of amino acid production in the …; assay: as above; settings: 100 μM of the hapten
Experimental: as §1, §2, §3

[4] = system: antibody 7G12-A10-G1-A12-mesohemin (Fe(III)mesoporphyrin) complex; assay: Peroxidation of chromogenic peroxidase substrates with H2O2 catalyzed by antibody-mesohemin complex
Experimental: In further experiments, this antibody was used in the presence of H2 O2 to catalyze the oxidation of the following group of typical chromogenic peroxidase substrates: [drawing 7] Reaction mixtures contained 1 mM reducing substrate, 5 mM hydrogen peroxide, 0.5 mM Fe(III)mesoporphyrin chloride (mesohemin), 0.5% w/v Triton X-100, 4% v/v dimethyl sulfoxide (DMSO), and 90 mM tris acetate, pH 8.0, and were incubated at 10° C. Antibody samples contained 0.2 mg/mL (1.3 μM) protein.
The monitored wavelength and Δε value for each reaction, and the plot in FIG. 2 showing the corresponding absorption curves for each comparison are as follows:
The rate of o-dianisidine oxidation was examined at several o-dianisidine concentrations, ranging from 0.05 mM to 2.5 mM, using 10 mM H2 O2 in each case and other reaction conditions as described above. The initial rate of peroxidation v is shown in FIG. 3 as a function of o-dianisidine concentration for both reactions catalyzed by mesohemin alone (open squares) and reactions catalyzed by the antibody-mesohemin complex (filled squares).
Saturation kinetics for the o-dianisidine peroxidation reaction were determined at an o-dianisidine concentration of 0.6 mM, with the remaining reaction conditions as described above. Lineweaver-Burk plots are shown in FIG. 4 for both free mesohemin (open squares) and antibody-mesohemin complex (filled squares) as a function of H2 O2 concentrations. The rates shown are based on an estimated molar extinction coefficient (ε) of 7500 for oxidized o-dianisidine.

[5] = system: antibody 7G12-A10-G1-A12 plus 1 μM Fe(III)-mesoporphyrin; assay: Oxidation of pyrogallol, absorption at 420 nm monitored over time (FIG. 1); settings: 5 μM NMMP
Experimental: In one experiment, the antibody was used for oxidation of pyrogallol as determined spectrometrically by monitoring […]. The reaction was as follows: [drawing 6] The product has a maximum absorption at 420 nm.
(a) 1 μM Fe(III)-mesoporphyrin only;
(c) the antibody plus 1 μM Fe(III)-mesoporphyrin and 5 μM NMMP; and
(d) the antibody plus 1 μM Fe(III)-mesoporphyrin only.

[6] = peroxidation of the named reducing substrate by the antibody-mesohemin complex

Q: How did the Ki [1] turn out when iron(III)mesoporphyrin was run?
A: < 10 nM

Q: What does the source list for `Cc1ncc(CO)c(CNC(Cc2ccc([N+](=O)[O-])cc2)C(=O)O)c1O` (stereo not shown) [Schiff base analog]?
A: inhibition of transamination [2]: noticeably inhibited; inhibition of transamination [3]: noticeably inhibited

Q: `Oc1cccc(O)c1O` [pyrogallol] was tested. Which “Kcat /Km” value [4, 6] did it give?
A: 122 M⁻¹ s⁻¹

Q: What does the source list for N-Methyl mesoporphyrin [NMMP]?
A: effect of NMMP on the pyrogallol oxidation rate [5]: destroying the catalytic effect; effect of hapten on antibody catalysis of peroxidation ([4]; hapten in a stoichiometric amount relative to antibody binding sites, each of the four reactions): completely blocked antibody catalysis

Q: How did the Km ([4]; o-dianisidine peroxidation, 0.6 mM o-dianisidine, H2O2 concentration varied (Lineweaver-Burk, FIG. 4), pH 8.0, 10° C.) turn out when `OO` [H2 O2, hydrogen peroxide] was run?
A: 24 mM

Q: And the “Kcat /Km” value ([4]; o-dianisidine peroxidation, 0.6 mM o-dianisidine, H2O2 concentration varied, pH 8.0, 10° C.)?
A: 274 m^-1 s^-1

Q: What about the kcat ([4]; o-dianisidine peroxidation, 0.6 mM o-dianisidine, H2O2 concentration varied, pH 8.0, 10° C., ε estimated 7500) of the same compound?
A: 6.57 s⁻¹

Q: How did the “Kcat /Km” value [4, 6] turn out when `CCn1c(=NN=c2sc3cc(S(=O)(=O)O)ccc3n2CC)sc2cc(S(=O)(=O)O)ccc21` [2,2'-azinobis(3-ethylbenzothiazoline-6-sulfonic acid)] was run?
A: 233 M⁻¹ s⁻¹
